Measurements from patent publication US6492434B1, “Methods for inhibiting skin ulceration by use of cyanoacrylate adhesives” (Flowers PArk Ltd., priority 1995, dated 2002).

Test system: decubitus ulcers
Test: Evaluation of n-butyl cyanoacrylate adhesive on inhibition of decubitus ulcers in 17 adult nursing home patients
Type: in vivo, human
Procedure: An evaluation of the effect of n-butyl cyanoacrylate adhesive on the inhibition of decubitus ulcers in 17 adult patients located in nine different nursing homes was conducted. In this example, 17 patients were selected based on a history of recurring decubitus ulcer formation or, based on medical evaluation, were deemed to be at high risk of developing decubitus ulcers. A prophylactic treatment regimen was then employed on these patients which regimen consisted of using conventional pressure ulcer preventative practices primarily involving periodic rotation of the patient as well as application of an n-butyl cyanoacrylate adhesive composition onto the intact skin areas which appeared likely to develop pressure ulcers by virtue of irritation and reddening of the skin or unbroken blister formation which is classified as a stage I decubitus ulcer or by application of the n-butyl cyanoacrylate composition onto intact skin adjacent to type II decubitus ulcers. Application of n-butyl cyanoacrylate consisted of application of about 1-5 drops of the n-butyl cyanoacrylate composition onto the surface skin area prone to ulceration wherein each drop corresponds to about 0.03 ml of cyanoacrylate.
The specific amount of n-butyl cyanoacrylate adhesive and point of application of the adhesive for each patient are set forth in the following Table I:
After application, the cyanoacrylate adhesive was allowed to form a polymeric film and, on average, reapplication of the adhesive was conducted every 24 hours until the evaluation was completed.

`C=C(C#N)C(=O)OCCCC` [n-butyl cyanoacrylate adhesive, n-butyl-2-cyanoacrylate] was tested, and the “expansion of stage II decubitus ulcer to adjacent skin areas” value (all patients treated in skin areas adjacent to stage II decubitus ulcer, plus conventional preventative practices) was “minimal expansion of the ulcer”, the “progression to stage II decubitus ulcer formation (broken skin)” value (all patients with redness/irritation or blistering (stage I) of intact skin, plus conventional pressure ulcer preventative practices) was “did not progress to stage II decubitus ulcer formation” and the RESULT (patient 1, heel, redness 3 cm, 2 drops, reapplied about every 24 h, plus conventional preventative practices) was “NO BREAKDOWN OF SKIN ON HEEL”. The RESULT (patient 2, heel, redness 3 cm, 2 drops, reapplied about every 24 h, plus conventional practices) was “LESS PERSPIRATION AND NO IRRITATION”, the RESULT (patient 3, heels (2), blister (Stage I) 3-4 cm, 2 drops, reapplied about every 24 h, plus conventional practices) was “NO BREAKDOWN OF BLISTER TO STAGE II” and the RESULT (patient 4, heels (2) and elbows (2), redness 3-5 cm, 2 drops, reapplied about every 24 h, plus conventional practices) was “NO SKIN BREAKDOWN ON HEELS OR ELBOWS”. The RESULT (patient 5, cheek, redness ½-3 in, 2 drops, reapplied about every 24 h, plus conventional practices) was “NO IRRITATION DEVELOPED”, the RESULT (patient 6, lower leg, bruise 2-3 in, 4-5 drops, reapplied about every 24 h, plus conventional practices, listed as N-BUTYL CYANOACRYLATE ADHESIVES) was “NO SKIN BREAKDOWN” and the RESULT (patient 7, shoulder, bony prominence 3-4 cm, 3-4 drops, reapplied about every 24 h, plus conventional practices, listed as N-BUTYL CYANOACRYLATE ADHESIVES) was “SKIN DID NOT BREAKDOWN”. The RESULT (patient 8, hip, bony prominence 3-4 cm, 3-4 drops, reapplied about every 24 h, plus conventional practices) was “NO SKIN BREAKDOWN”, the RESULT (patient 9, heels (2), redness 5 cm, 1 drop, reapplied about every 24 h, plus conventional practices) was “NO IRRITATION/REDDENING LEFT” and the RESULT (patient 10, hip, blister (Stage I) 3-4 cm, 2 drops, treatment stopped) was “WARMING SENSATION UPON APPLICATION -”. The RESULT (patient 11, top of foot, redness 2-5 cm, 1 drop, reapplied about every 24 h, plus conventional practices) was “NO IRRITATION/REDDENlNG LEFT”, the RESULT (patient 12, heel, redness (scabbed over - healed stage II) 6-8 cm, 3 drops, reapplied about every 24 h, plus conventional practices) was “REDNESS HEALED UP” and the RESULT (patient 13, knees & heels, redness 2.5 cm, 3 drops, patient passed away due to other conditions) was “IRRITATION IMPROVED BUT PATIENT”. The RESULT (patient 14, heel, skin redness around Stage II ulcer 2.5 cm, 3 drops, reapplied about every 24 h, plus conventional practices) was “NO IRRITATION EVIDENT - HEELS ALMOST HEALED”, the RESULT (patient 15, heels (2), redness 2.5 cm, 3 drops, reapplied about every 24 h, plus conventional practices) was “PATIENT'S HEELS LOOK BETTER,” and the RESULT (patient 16, hip, redness (healed Stage II ulcer) 2 cm, 2-3 drops, reapplied about every 24 h, plus conventional practices) was “NO FURTHER BREAKDOWN, REDDENING STILL”.
